Measured values reported in patent publication US7888464B2, “Hepatitis C virus inhibitors” (Bristol-Myers Squibb Company, priority 2006, dated 2011).

Tests used:
[1] = system: HCV replicon (strain 1b) in HUH-7 cells; experiment: HCV replicon FRET assay; format: cell-based; conditions: Hepatitis C virus, Huh-7, read-out: EC50 in the replicon FRET assay
Text: An HCV replicon whole cell system was established as described by Lohmann V, Korner F, Koch J, Herian U, Theilmann L, Bartenschlager R., Science 285(5424): 110-3 (1999). This system enabled us to evaluate the effects of our HCV Protease compounds on HCV RNA replication. Briefly, using the HCV strain 1b sequence described in the Lohmann paper (Assession number: AJ238799), an HCV cDNA was synthesized by Operon Technologies, Inc. (Alameda, Calif.), and the full-length replicon was then assembled in plasmid pGem9zf(+) (Promega, Madison, Wis.) using standard molecular biology techniques. The replicon consists of (i) the HCV 5′ UTR fused to the first 12 amino acids of the capsid protein, (ii) the neomycin phosphotransferase gene (neo), (iii) the IRES from encephalomyocarditis virus (EMCV), and (iv) HCV NS3 to NS5B genes and the HCV 3′ UTR. Plasmid DNAs were linearized with ScaI and RNA transcripts were synthesized in vitro using the T7 MegaScript transcription kit (Ambion, Austin, Tex.) according to manufacturer's directions. In vitro transcripts of the cDNA were transfected into the human hepatoma cell line, HUH-7. […] Resulting cell lines were characterized for positive and negative strand RNA production and protein production over time.
The HCV replicon FRET assay was developed to monitor the inhibitory effects of compounds described in the disclosure on HCV viral replication. HUH-7 cells, constitutively expressing the HCV replicon, were grown in Dulbecco's Modified Eagle Media (DMEM) (Gibco-BRL) containing 10% Fetal calf serum (FCS) (Sigma) and 1 mg/ml G418 (Gibco-BRL). Cells were seeded the night before (1.5×10^4 cells/well) in 96-well tissue-culture sterile plates. Compound and no compound controls were prepared in DMEM containing 4% FCS, 1:100 Penicillin/Streptomysin (Gibco-BRL), 1:100 L-glutamine and 5% DMSO in the dilution plate (0.5% DMSO final concentration in the assay). Compound/DMSO mixes were added to the cells and incubated for 4 days at 37° C. After 4 days, cells were first assessed for cytotoxicity using alamar Blue (Trek Diagnotstic Systems) for a CC50 reading. The toxicity of compound (CC50) was determined by adding 1/10th volume of alamar Blue to the media incubating the cells. After 4 h, the fluorescence signal from each well was read, with an excitation wavelength at 530 nm and an emission wavelength of 580 nm, using the Cytofluor Series 4000 (Perspective Biosystems). Plates were then rinsed thoroughly with Phosphate-Buffered Saline (PBS) (3 times 150 μl). The cells were lysed with 25 μl of a lysis assay reagent containing an HCV protease substrate (5× cell Luciferase cell culture lysis reagent (Promega #E153A) diluted to 1× with distilled water, NaCl added to 150 mM final, the FRET peptide substrate (as described for the enzyme assay above) diluted to 10 μM final from a 2 mM stock in 100% DMSO. The plate was then placed into the Cytofluor 4000 instrument which had been set to 340 nm excitation/490 nm emission, automatic mode for 21 cycles and the plate read in a kinetic mode. EC50 determinations were carried out as described for the IC50 determinations.

[2] = molecular target: T1, human neutrophil elastase (HNE) (Homo sapiens, UniProt P08246); experiment: Specificity assay, neutrophil elastase; format: biochemical; conditions: read-out: HLE activity in the specificity assays
T1 construct: purchased Sigma, EMDbiosciences
T1 sequence (P08246 30-267): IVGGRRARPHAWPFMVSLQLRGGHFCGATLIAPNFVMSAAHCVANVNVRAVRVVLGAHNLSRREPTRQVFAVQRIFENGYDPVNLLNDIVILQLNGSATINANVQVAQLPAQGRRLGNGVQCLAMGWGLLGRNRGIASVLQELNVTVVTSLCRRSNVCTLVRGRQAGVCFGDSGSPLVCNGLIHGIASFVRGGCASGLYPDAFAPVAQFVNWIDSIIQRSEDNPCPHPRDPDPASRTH
Experimental: The specificities of compounds of the present disclosure were determined against a variety of serine proteases: human neutrophil elastase (HNE), porcine pancreatic elastase (PPE) and human pancreatic chymotrypsin and one cysteine protease: human liver cathepsin B. In all cases a 96-well plate format protocol using a fluorometric Amino-Methyl-Coumarin (AMC) substrate specific for each enzyme was used as described previously (PCT Patent Application No. WO 00/09543) with some modifications to the serine protease assays. All enzymes were purchased from Sigma, EMDbiosciences while the substrates were from Bachem, Sigma and EMDbiosciences.
Compound concentrations varied from 100 to 0.4 μM depending on their potency. The enzyme assays were each initiated by addition of substrate to enzyme-inhibitor pre-incubated for 10 min at room temperature and hydrolysis to 15% conversion as measured on cytofluor.
50 mM Tris-HCl, pH 8.0, 50 mM NaCl, 0.1 mM EDTA, 3% DMSO, 0.02% Tween-20, 5 μM succ-AAPV-AMC and 20 nM HNE or 8 nM PPE;
The percentage of inhibition was calculated using the formula: [1−((UVinh−UVblank)/(UVctl−UVblank))]×100
A non-linear curve fit was applied to the inhibition-concentration data, and the 50% effective concentration (IC50) was calculated by the use of Excel XLfit software.

## C=C[C@@H]1C[C@]1(NC(=O)[C@@H]1C[C@@](O)(c2ccc(-c3ccccc3)cc2)CN1C(=O)[C@@H](NC(=O)OC(C)(C)C)C(C)(C)C)C(=O)NS(=O)(=O)C1CC1 [Compound 3]
[1]
  EC50: 0.011 µM
[2]
  IC50: 82 µM
